Molecules are shown by their SMILES. Converted amounts (≈) assume the structure as drawn.

Data on three molecules can be found in ChEMBL document CHEMBL3046682, “Synthesis of lactosylated piperazinyl porphyrins and their hepatocyte-selective targeting” (Med Chem Res, 2007).

Data set [1] relates to Liver. Kind of data set: Biodistribution in tumor-bearing Mus musculus KM (mouse) liver at 10 mg/kg, ip after 3 to 24 hr by fluorescence assay. The data set is classed as ADME, organism-based. On the set-up: dose 10 mg/kg, route intraperitoneal. To be noted: in vivo.
In data set [2] the test system is Liver. Briefly: Biodistribution in tumor-bearing Mus musculus KM (mouse) liver at 10 mg/kg, ip after 144 hr by fluorescence assay. To be noted: in vivo. On the set-up: dose 10 mg/kg, route intraperitoneal. It is filed as ADME, organism-based.
The next data set relates to Zone of skin. Kind of data set: Biodistribution in tumor-bearing Mus musculus KM (mouse) skin at 10 mg/kg, ip after 3 to 24 hr by fluorescence assay. It is filed as ADME, organism-based. Details: dose 10 mg/kg, route intraperitoneal; call rule not given here. To be noted: in vivo.
A short description of data set [3]: Cytotoxicity against Homo sapiens (human) HNE1 cells assessed as cell death after 48 hr by MTT assay in absence of light. It is filed as functional. The settings on record: HNE1, 48 h, read-out: ID50 (the source's name).
The nature of data set [4]: Photocytotoxicity against Homo sapiens (human) HNE1 cells assessed as cell death at 6.25 ug/ml after 18 hr by MTT assay in presence of light. The data set is classed as functional. For orientation: Formazan colour is commonly taken as a measure of viable cells.
Data set [5] in a line: Cytotoxicity against Homo sapiens (human) MCG cells assessed as cell death at 6.25 ug/ml after 18 hr by MTT assay in absence of light. It is filed as functional.
The nature of data set [6]: Cytotoxicity against Homo sapiens (human) Bel7404 cells assessed as cell death after 48 hr by MTT assay in absence of light. The data set is classed as functional. The settings on record: BEL-7404, 48 h, read-out: ID50 (the source's name).
Data set [7] is described as follows: Cytotoxicity against Homo sapiens (human) Bel7404 cells assessed as cell death at 6.25 ug/ml after 18 hr by MTT assay in absence of light. It is filed as functional, BEL-7404.
A short description of data set [8]: Cytotoxicity against Homo sapiens (human) MCG cells assessed as cell death after 48 hr by MTT assay in absence of light. It is filed as functional. The settings on record: read-out: ID50 (the source's name).
Data set [9] in a line: Cytotoxicity against Homo sapiens (human) HNE1 cells assessed as cell death at 6.25 ug/ml after 18 hr by MTT assay in absence of light. The data set is classed as functional.
Data set [10] in a line: Photocytotoxicity against Homo sapiens (human) Bel7404 cells assessed as cell death at 6.25 ug/ml after 18 hr by MTT assay in presence of light. It is filed as functional, BEL-7404.
Data set [11] can be described thus: Photocytotoxicity against Homo sapiens (human) MCG cells assessed as cell death at 6.25 ug/ml after 18 hr by MTT assay in presence of light. It is filed as functional.
Data set [12] can be described thus: Solubility of the compound in water. To be noted: buffer. It is filed as physicochemical.

`O=C([C@H](O)[C@@H](O)[C@H](O[C@@H]1O[C@H](CO)[C@H](O)[C@H](O)[C@H]1O)[C@H](O)CO)N1CCN(c2ccc(-c3c4nc(c(-c5ccc(N6CCN(C(=O)[C@H](O)[C@@H](O)[C@H](O[C@@H]7O[C@H](CO)[C@H](O)[C@H](O)[C@H]7O)[C@H](O)CO)CC6)cc5)c5ccc([nH]5)c(-c5ccc(N6CCN(C(=O)[C@H](O)[C@@H](O)[C@H](O[C@@H]7O[C@H](CO)[C@H](O)[C@H](O)[C@H]7O)[C@H](O)CO)CC6)cc5)c5nc(c(-c6ccc(N7CCN(C(=O)[C@H](O)[C@@H](O)[C@H](O[C@@H]8O[C@H](CO)[C@H](O)[C@H](O)[C@H]8O)[C@H](O)CO)CC7)cc6)c6ccc3[nH]6)C=C5)C=C4)cc2)CC1`: the Drug uptake result in the data set with Liver [1] is on record as “Active”; in the data set with Liver [2], “Not Active”; in the data set with Zone of skin, “Not Active”.

On to `O=C([C@H](O)[C@@H](O)[C@H](O[C@@H]1O[C@H](CO)[C@H](O)[C@H](O)[C@H]1O)[C@H](O)CO)N1CCN(c2ccc(-c3c4nc(c(-c5ccccc5)c5ccc([nH]5)c(-c5ccccc5)c5nc(c(-c6ccccc6)c6ccc3[nH]6)C=C5)C=C4)cc2)CC1`, for which the values for the IC50 in [3], in data set [6] and in data set [8] were 46 µg/mL (≈ 44.3 µM), 43 µg/mL (≈ 41.4 µM) and 48 µg/mL (≈ 46.2 µM), respectively. Besides, the Activity in [4] is 75%; in [5], 8%; in data set [7] it was 8%; in data set [9] it was 8%; in data set [10], 75%; in [11] it was 75%.

For the molecule `C1=Cc2nc1c(-c1ccccc1)c1nc(c(-c3ccccc3)c3ccc([nH]3)c(-c3ccccc3)c3ccc([nH]3)c2-c2ccccc2)C=C1` [TETRAPHENYLPORPHYRIN], the IC50 in data set [3], in [6] and in data set [8] was more than 50 µg/mL in each case. Besides, the solubility result in data set [12] is “Insoluble”.
